The source of these data is ChEMBL document CHEMBL5465560, “Selectivity Literature for EUbOPEN Chemogenomic Library” (2024).

The target in assay [1] is T1, Serine/threonine-protein kinase 17A (Homo sapiens) (UniProt Q9UEE5).
T1 sequence (whole entry): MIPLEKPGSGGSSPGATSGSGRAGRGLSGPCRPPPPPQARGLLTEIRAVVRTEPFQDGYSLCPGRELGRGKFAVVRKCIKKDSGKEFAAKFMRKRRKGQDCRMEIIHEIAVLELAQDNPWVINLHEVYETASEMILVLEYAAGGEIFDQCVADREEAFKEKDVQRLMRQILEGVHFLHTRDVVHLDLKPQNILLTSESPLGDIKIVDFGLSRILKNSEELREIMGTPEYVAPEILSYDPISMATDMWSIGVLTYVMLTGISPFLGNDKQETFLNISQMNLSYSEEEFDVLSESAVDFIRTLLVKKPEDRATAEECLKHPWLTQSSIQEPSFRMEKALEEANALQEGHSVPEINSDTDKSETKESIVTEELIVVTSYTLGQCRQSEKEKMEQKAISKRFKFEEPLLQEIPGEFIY
Kind of assay: Selectivity interaction (KinomeScan (DiscoverX)) EUB0001079a STK17A. The note with it: at 1 µM.

The target in assay [2] is Serine/threonine-protein kinase tousled-like 2 (Homo sapiens) (UniProt Q86UE8). Kind of assay: Selectivity interaction (KinomeScan (DiscoverX)) EUB0001079a TLK2. The note with it: at 1 µM.
Serine/threonine-protein kinase tousled-like 2 (Homo sapiens), sequence (Q86UE8 whole entry, looked up): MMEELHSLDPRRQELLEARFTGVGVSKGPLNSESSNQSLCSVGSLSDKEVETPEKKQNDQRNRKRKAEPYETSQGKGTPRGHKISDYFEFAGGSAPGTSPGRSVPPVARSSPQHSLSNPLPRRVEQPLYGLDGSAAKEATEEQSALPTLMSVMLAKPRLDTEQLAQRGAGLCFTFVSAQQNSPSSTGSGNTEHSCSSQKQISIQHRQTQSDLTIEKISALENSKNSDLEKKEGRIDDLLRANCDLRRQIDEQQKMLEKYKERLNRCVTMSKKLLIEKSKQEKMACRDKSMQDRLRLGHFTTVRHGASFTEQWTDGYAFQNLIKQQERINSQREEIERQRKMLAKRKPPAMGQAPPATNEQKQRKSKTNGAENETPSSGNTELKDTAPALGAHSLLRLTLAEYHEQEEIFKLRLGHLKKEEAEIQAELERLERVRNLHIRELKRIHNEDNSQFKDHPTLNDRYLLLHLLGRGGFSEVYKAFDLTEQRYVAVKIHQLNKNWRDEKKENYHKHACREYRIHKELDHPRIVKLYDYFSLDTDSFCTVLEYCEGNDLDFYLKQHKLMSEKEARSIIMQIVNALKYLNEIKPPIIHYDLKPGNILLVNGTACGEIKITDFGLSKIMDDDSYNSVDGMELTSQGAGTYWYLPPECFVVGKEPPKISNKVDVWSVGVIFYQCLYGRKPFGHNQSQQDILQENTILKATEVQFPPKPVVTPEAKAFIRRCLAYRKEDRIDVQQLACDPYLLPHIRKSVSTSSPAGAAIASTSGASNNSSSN
For assay [3], the target named is Tyrosine-protein kinase ABL2 (Homo sapiens, UniProt P42684). Kind of assay: Selectivity interaction (KinomeScan (DiscoverX)) EUB0000655a ABL2. The note with it: at 10 µM.
Tyrosine-protein kinase ABL2, sequence (P42684 whole entry): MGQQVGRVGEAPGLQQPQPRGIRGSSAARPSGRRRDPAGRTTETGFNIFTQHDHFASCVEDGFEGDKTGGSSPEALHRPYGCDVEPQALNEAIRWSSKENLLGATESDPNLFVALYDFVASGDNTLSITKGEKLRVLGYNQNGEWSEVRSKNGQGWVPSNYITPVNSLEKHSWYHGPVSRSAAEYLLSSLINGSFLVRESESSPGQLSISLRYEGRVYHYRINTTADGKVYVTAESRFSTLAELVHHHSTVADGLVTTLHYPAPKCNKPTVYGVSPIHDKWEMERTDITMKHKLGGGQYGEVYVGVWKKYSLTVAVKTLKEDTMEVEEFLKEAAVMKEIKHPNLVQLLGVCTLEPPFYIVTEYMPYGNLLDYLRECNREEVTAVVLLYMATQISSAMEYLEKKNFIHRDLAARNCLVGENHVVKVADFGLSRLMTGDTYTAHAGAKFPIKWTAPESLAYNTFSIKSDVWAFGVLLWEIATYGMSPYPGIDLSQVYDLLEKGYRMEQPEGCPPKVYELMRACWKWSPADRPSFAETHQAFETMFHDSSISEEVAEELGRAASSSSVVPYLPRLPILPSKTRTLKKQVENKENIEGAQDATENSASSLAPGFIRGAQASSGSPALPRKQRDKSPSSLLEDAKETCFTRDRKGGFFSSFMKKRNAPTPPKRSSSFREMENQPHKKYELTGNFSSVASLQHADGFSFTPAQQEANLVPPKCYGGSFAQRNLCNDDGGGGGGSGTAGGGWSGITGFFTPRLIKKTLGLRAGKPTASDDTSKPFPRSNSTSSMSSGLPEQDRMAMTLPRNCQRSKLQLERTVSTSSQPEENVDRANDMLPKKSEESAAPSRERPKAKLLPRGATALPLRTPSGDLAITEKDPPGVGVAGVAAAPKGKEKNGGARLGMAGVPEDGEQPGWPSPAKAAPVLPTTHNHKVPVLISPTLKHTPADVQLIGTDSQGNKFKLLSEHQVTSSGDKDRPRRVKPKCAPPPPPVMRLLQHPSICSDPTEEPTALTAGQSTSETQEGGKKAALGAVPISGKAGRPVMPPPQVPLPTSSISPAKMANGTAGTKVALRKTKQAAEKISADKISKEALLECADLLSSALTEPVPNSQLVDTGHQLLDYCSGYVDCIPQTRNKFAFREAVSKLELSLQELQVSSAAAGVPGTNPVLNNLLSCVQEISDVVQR
For assay [4], the target named is T2, Tyrosine-protein kinase receptor TYRO3 (Homo sapiens) (UniProt Q06418).
T2 sequence (whole entry): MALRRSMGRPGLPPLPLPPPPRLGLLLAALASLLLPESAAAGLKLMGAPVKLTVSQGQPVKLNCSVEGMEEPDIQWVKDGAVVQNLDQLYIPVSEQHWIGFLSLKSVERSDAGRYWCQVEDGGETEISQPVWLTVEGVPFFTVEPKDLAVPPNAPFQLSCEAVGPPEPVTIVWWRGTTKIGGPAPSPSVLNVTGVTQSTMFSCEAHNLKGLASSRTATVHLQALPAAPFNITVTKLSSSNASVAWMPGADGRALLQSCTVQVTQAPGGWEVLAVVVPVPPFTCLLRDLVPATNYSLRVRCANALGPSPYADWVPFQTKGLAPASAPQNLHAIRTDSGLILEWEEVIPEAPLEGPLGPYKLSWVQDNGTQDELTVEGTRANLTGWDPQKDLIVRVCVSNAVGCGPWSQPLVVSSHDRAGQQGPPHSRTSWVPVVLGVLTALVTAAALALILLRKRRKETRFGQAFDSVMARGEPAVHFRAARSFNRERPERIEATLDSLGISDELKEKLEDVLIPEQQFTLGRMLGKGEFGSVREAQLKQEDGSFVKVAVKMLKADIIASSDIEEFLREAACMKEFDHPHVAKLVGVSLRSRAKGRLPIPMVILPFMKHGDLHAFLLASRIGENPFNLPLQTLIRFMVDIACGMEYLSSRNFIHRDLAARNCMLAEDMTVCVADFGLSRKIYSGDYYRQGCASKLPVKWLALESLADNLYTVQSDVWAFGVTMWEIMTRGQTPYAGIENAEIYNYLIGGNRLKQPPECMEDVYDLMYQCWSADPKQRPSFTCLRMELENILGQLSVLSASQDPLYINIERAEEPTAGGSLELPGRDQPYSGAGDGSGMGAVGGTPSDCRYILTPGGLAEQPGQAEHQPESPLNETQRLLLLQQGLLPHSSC
Kind of assay: Selectivity interaction (Kinase panel (Z-LYTE Assay)) EUB0001632a TYRO3. The note with it: at 10 µM.

The target in assay [5] is Serine/threonine-protein kinase NIM1 (Homo sapiens, UniProt Q8IY84). Kind of assay: Selectivity interaction (Kinase panel (Z-LYTE Assay)) EUB0001632a NIM1K. The note with it: at 10 µM.
Serine/threonine-protein kinase NIM1, sequence (Q8IY84 whole entry): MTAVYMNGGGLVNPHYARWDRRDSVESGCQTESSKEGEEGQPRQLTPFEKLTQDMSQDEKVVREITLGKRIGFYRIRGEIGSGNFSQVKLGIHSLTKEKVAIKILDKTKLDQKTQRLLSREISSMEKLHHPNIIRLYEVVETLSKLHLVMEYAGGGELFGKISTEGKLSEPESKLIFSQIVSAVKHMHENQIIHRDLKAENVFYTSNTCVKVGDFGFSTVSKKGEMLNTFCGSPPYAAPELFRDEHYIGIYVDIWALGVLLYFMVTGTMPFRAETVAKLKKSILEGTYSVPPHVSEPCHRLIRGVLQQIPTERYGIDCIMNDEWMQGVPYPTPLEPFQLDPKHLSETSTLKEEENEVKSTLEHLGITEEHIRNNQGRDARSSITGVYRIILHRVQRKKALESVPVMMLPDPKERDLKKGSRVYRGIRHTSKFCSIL
Assay [6] has as its target Casein kinase II subunit alpha' (Homo sapiens) (UniProt P19784). Kind of assay: Selectivity interaction (ActivX KiNativ screen (kinase selectivity in THP-1 cell lysates)) EUB0000639a CSNK2A2. It is filed as subcellular. The note with it: lysate.
Assay [7] addresses Ribosomal protein S6 kinase alpha-1 (Homo sapiens, UniProt Q15418). Kind of assay: Selectivity interaction (ActivX KiNativ screen (kinase selectivity in THP-1 cell lysates)) EUB0000639a RPS6KA1. In kind it is subcellular. The note with it: lysate, at 0.04 µM.
Assay [8] has as its target T3, Serine/threonine-protein kinase DCLK3 (Homo sapiens) (UniProt Q9C098).
T3 sequence (whole entry): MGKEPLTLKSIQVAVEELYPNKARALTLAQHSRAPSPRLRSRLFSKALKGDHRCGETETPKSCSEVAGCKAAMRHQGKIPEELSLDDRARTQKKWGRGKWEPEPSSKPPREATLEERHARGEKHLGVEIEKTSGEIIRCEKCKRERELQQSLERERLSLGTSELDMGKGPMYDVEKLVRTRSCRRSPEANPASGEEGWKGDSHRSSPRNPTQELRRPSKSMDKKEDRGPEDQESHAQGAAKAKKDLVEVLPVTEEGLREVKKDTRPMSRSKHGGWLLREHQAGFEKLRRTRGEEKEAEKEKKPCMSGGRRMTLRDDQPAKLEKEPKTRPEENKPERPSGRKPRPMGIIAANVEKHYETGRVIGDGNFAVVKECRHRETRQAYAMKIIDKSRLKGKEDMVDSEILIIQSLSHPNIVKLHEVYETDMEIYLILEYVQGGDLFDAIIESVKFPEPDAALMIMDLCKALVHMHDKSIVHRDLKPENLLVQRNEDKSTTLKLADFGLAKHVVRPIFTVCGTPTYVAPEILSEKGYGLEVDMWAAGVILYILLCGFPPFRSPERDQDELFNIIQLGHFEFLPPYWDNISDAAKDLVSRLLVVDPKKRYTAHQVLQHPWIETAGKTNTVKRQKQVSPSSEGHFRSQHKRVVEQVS
Kind of assay: Selectivity interaction (KinomeScan (DiscoverX)) EUB0001619a DCLK3. The note with it: at 1 µM.

Assay [9] concerns the target Phosphatidylinositol 4,5-bisphosphate 3-kinase catalytic subunit gamma isoform (Homo sapiens) (UniProt P48736). Kind of assay: Selectivity interaction (Kinase panel (literature)) EUB0001199aCl PIK3CG. The note with it: at 1 µM.

Casein kinase II subunit alpha' (Homo sapiens), sequence (P19784 whole entry, looked up): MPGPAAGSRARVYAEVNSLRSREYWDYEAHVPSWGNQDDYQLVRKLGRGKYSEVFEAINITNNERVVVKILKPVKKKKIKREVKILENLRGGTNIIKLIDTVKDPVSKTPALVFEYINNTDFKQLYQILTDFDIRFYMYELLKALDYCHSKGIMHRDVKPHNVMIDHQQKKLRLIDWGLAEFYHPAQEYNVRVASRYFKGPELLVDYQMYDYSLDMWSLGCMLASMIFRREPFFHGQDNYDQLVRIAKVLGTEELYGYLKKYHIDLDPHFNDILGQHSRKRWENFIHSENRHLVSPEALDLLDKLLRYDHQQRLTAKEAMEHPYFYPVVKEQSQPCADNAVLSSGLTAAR
Ribosomal protein S6 kinase alpha-1, sequence (Q15418 whole entry): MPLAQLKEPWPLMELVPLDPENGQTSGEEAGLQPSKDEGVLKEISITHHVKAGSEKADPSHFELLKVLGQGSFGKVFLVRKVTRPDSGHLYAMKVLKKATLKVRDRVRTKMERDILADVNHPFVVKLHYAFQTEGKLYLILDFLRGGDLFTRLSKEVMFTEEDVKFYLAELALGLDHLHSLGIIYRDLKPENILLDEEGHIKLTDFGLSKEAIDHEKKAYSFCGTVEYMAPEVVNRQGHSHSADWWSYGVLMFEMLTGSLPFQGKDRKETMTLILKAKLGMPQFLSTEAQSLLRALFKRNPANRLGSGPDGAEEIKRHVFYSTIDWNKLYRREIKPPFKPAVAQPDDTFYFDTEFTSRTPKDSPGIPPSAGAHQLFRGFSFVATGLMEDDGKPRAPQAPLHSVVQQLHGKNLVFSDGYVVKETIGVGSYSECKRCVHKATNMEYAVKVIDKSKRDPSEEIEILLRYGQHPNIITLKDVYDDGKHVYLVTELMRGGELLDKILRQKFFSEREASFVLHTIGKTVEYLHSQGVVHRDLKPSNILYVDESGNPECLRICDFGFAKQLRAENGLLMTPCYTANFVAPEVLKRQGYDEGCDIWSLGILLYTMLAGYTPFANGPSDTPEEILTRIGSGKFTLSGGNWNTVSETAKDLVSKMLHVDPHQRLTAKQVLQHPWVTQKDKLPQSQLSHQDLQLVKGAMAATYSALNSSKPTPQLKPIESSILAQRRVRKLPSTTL
Phosphatidylinositol 4,5-bisphosphate 3-kinase catalytic subunit gamma isoform (Homo sapiens), sequence (P48736 whole entry, looked up, canonical isoform): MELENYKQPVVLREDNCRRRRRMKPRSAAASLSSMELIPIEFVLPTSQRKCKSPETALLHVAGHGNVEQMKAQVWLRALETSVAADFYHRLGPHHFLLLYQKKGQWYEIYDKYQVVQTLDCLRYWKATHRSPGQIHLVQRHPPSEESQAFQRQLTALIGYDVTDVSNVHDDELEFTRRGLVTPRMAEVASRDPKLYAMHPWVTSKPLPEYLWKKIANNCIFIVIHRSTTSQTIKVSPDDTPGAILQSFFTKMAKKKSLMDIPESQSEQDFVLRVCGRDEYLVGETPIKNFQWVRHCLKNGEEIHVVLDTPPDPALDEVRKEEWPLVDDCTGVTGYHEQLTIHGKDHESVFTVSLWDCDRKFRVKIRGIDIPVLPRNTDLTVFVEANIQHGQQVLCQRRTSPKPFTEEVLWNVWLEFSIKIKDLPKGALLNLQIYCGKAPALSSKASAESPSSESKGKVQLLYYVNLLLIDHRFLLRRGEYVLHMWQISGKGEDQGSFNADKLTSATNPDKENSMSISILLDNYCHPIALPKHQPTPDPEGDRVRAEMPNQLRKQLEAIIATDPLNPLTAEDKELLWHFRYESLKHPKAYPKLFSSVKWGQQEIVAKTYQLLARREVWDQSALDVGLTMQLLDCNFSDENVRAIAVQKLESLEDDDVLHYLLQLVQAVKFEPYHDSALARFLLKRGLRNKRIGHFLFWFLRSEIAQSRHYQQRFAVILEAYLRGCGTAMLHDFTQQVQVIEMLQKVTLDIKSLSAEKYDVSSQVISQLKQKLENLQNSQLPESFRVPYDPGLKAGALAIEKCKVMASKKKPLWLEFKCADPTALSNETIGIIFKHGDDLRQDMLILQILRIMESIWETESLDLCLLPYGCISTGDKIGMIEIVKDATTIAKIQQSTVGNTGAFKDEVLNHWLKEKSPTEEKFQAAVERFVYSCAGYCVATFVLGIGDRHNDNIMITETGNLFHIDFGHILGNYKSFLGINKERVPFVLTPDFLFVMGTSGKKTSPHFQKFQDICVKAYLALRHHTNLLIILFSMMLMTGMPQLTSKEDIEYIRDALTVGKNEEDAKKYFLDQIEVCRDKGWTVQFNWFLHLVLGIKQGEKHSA

For `Nc1cnc(N2CCc3cc(S(=O)(=O)Nc4c(F)cc(Cl)cc4F)cc(N4CCCC4=O)c32)nc1` [TP-020n], the % of control in assay [1] came out at 100%; in [2], 79%.

For `CN(C)CCOc1ccc(-c2nc(-c3ccncc3)c(-c3ccc4c(c3)CC/C4=N\O)[nH]2)cc1`, in assay [3], the % of control is 55%.

As to `Cn1cc(-n2cnc3c(NCc4nc5cc(Cl)c(Cl)cc5[nH]4)nc(N4CCOCC4)nc32)cn1`, the % of control in [4] was -1.87%; in assay [5], 4.54%.

With `CC[C@@H]1[C@H](F)C(=O)N[C@@H]1COc1nccc2cc(C(N)=O)c(OC)cc12` [ZIMLOVISERTIB], the % of inhibition in [6] (at 0.01 µM) was -4.5%; in [6] (at 0.04 µM) it was -21.2%; in assay [6] (at 0.2 µM) it was -18%; in assay [6] (at 1 µM), -3.6%; in assay [6] (at 5 µM) it was -2.6%; in [7] it was 6.3%.

With `N#Cc1cccc(-c2c[nH]c3ncnc(N4CCOCC4)c23)c1`, in assay [8], the % of control worked out at 100%.

For the molecule `CN1Cc2nccc(-c3cn(C)nc3-c3ccc(F)cc3)c2C1=O`, the % of inhibition in assay [9] is -10%.
